Experimental findings from PubChem BioAssay (NCI) are described below.

Values joined by “and” are separate entries in the source; they are usually repeats but may differ in a detail not shown here. Equal entries are not always repeated.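 Exposure lasted 48 hours, with cells grown in 96-well plates and compounds tested at five concentrations. GI50 = concentration required for 50% inhibition of growth. At the TGI there is no net growth.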

Test systems include DMS 114 small cell lung; DMS 273 small cell lung; OVCAR-8 ovarian; XF 498 CNS; LXFL 529 NSCLC; KM20L2 colon; MALME-3M melanoma; M19-MEL melanoma; OVCAR-3 ovarian; HOP-18 NSCLC.
What all share (assay): NCI tumour cell line growth inhibition, 48 h

`Cc1cc(C)nc(NS(=O)(=O)c2ccc(NC(=O)c3cccc4c(N)c5ccccc5nc34)cc2)n1`: the TGI in the experiment with DMS 114 small cell lung, in the experiment on DMS 273 small cell lung, with OVCAR-8 ovarian, in the experiment with XF 498 CNS, in the experiment on LXFL 529 NSCLC and with KM20L2 colon was greater than 100 µM throughout. The TGI with MALME-3M melanoma, in the experiment with M19-MEL melanoma and with OVCAR-3 ovarian was greater than 100 µM each time.
On to `CC1(C)N=C(Oc2ccccc2)n2nccc2N1`, for which the TGI in the experiment on DMS 114 small cell lung, in the experiment on DMS 273 small cell lung, in the experiment with HOP-18 NSCLC, with XF 498 CNS, in the experiment with LXFL 529 NSCLC and in the experiment on KM20L2 colon was greater than 100 µM each time. In addition, the TGI in the experiment with MALME-3M melanoma, in the experiment with M19-MEL melanoma and with OVCAR-3 ovarian was greater than 100 µM each time.
Take `Cc1ccc(F)c2c(=O)cc(-c3ccccc3)[nH]c12`: the TGI in the experiment with DMS 114 small cell lung, with DMS 273 small cell lung, with OVCAR-8 ovarian, with HOP-18 NSCLC, in the experiment on LXFL 529 NSCLC and in the experiment with MALME-3M melanoma was greater than 100 µM in each case. Further, the TGI in the experiment on M19-MEL melanoma was greater than 100 µM.
As for `CC#Cc1c(C#CC)c(OC)c2c(c1OC)C(=O)c1ccccc1C2=O`, the TGI was 89 µM in the experiment with DMS 114 small cell lung; greater than 100 µM with DMS 273 small cell lung; greater than 100 µM in the experiment with OVCAR-8 ovarian; greater than 100 µM with XF 498 CNS; greater than 100 µM in the experiment on LXFL 529 NSCLC; greater than 100 µM with KM20L2 colon. The TGI in the experiment with MALME-3M melanoma, in the experiment on M19-MEL melanoma and in the experiment with OVCAR-3 ovarian was greater than 100 µM each time.
For the molecule `CCN(CC)CCC(=O)O[C@H]1CC[C@H](CC(C)[C@H]2CC(=O)C(C)C=C(C)[C@H](OC(=O)CCN(CC)CC)C(OC)C(=O)[C@@H](C)CC(C)/C=C/C=C/C=C(C)C(OC)CC3CC[C@H](C)[C@](O)(O3)C(=O)C(=O)N3CCCCC3C(=O)O2)CC1OC` (stereo not given in full), the TGI with DMS 114 small cell lung is 1.54 µM; with DMS 273 small cell lung it was 2.32 µM; with OVCAR-8 ovarian, 3.49 µM and 2.21 µM; with HOP-18 NSCLC it was 3.35 µM; with LXFL 529 NSCLC it was 1.74 µM; with KM20L2 colon it was greater than 4.99 µM. Also, in the experiment on OVCAR-3 ovarian, the TGI is 2.27 µM and 2.19 µM. Also, the GI50 in the experiment on OVCAR-8 ovarian is 6.24 nM; in the experiment with MALME-3M melanoma, 57.9 nM; with OVCAR-3 ovarian, 16.5 nM and 4.56 nM.
Regarding `CCCOP(=S)(N1CC1)N1CC1`, the TGI in the experiment with DMS 114 small cell lung, in the experiment with DMS 273 small cell lung, with OVCAR-8 ovarian, in the experiment with HOP-18 NSCLC, in the experiment with XF 498 CNS and with KM20L2 colon was greater than 100 µM in each case. The TGI in the experiment with MALME-3M melanoma, with M19-MEL melanoma and in the experiment with OVCAR-3 ovarian was greater than 100 µM in each case.
As for `COc1nc(OC)nc(Sc2ccc(Sc3ccc(Sc4nc(OC)nc(OC)n4)cc3)cc2)n1`, the TGI with DMS 114 small cell lung, in the experiment on DMS 273 small cell lung, in the experiment on OVCAR-8 ovarian, in the experiment on HOP-18 NSCLC, in the experiment on XF 498 CNS and in the experiment with LXFL 529 NSCLC was greater than 100 µM each time. Further, the TGI in the experiment on KM20L2 colon, with MALME-3M melanoma, with M19-MEL melanoma and with OVCAR-3 ovarian was greater than 100 µM throughout.
Take `O=C1Cc2ccccc2CCc2ccsc21`: the TGI with DMS 273 small cell lung, in the experiment on OVCAR-8 ovarian, in the experiment with HOP-18 NSCLC, with XF 498 CNS, in the experiment with LXFL 529 NSCLC and in the experiment with KM20L2 colon was greater than 100 µM each time. Also, the TGI with MALME-3M melanoma, in the experiment on M19-MEL melanoma and with OVCAR-3 ovarian was greater than 100 µM throughout.
Turning to `Oc1ccc(Cn2c(-c3ccc(O)cc3)nc3ccccc32)cc1`, the TGI with DMS 114 small cell lung, in the experiment on DMS 273 small cell lung, with OVCAR-8 ovarian, in the experiment on XF 498 CNS, in the experiment with LXFL 529 NSCLC and in the experiment on KM20L2 colon was greater than 100 µM throughout. Besides, the TGI in the experiment with MALME-3M melanoma, with M19-MEL melanoma and in the experiment with OVCAR-3 ovarian was greater than 100 µM each time.
As to `Cc1cc(Cl)ccc1NC(=O)C(=O)Cc1occc(=O)c1O`, the TGI in the experiment with DMS 114 small cell lung, in the experiment on DMS 273 small cell lung, in the experiment on OVCAR-8 ovarian, with HOP-18 NSCLC, in the experiment with XF 498 CNS and in the experiment on LXFL 529 NSCLC was greater than 100 µM in each case. The TGI in the experiment with KM20L2 colon, with MALME-3M melanoma and with M19-MEL melanoma was greater than 100 µM each time.
With `Cc1nc(Nc2nc3ccccc3[nH]2)[nH]c(=O)c1CCO`, the TGI with OVCAR-8 ovarian is greater than 100 µM; in the experiment on MALME-3M melanoma, greater than 71.5 µM; with OVCAR-3 ovarian it was greater than 100 µM.
Regarding `COC(=O)C1=NN2c3ccccc3CN([C@@H](C)c3ccccc3)C(=O)[C@H]2[C@@H]1C`, the TGI in the experiment with OVCAR-8 ovarian, in the experiment on MALME-3M melanoma and with OVCAR-3 ovarian was greater than 100 µM throughout.
As to `OC1(c2ccc3ccccc3c2)c2c(c3ccccc3c3ccccc23)C2=NCCN21` (stereo not given), the figures for the TGI in the experiment on OVCAR-8 ovarian, in the experiment on MALME-3M melanoma and with OVCAR-3 ovarian were greater than 30.3 µM, 38.1 µM and 36.9 µM, respectively.
Consider `O=C(O)CO/N=C1/C(c2c(O)[nH]c3ccccc23)=Nc2ccccc21`, for which the values for the TGI in the experiment on OVCAR-8 ovarian, with MALME-3M melanoma and in the experiment on OVCAR-3 ovarian were greater than 100 µM, 99.5 µM and 69.9 µM, respectively.
For `Cc1ccc(N2C(=O)C(=O)N(/N=C3\C(=O)Nc4ccccc43)C2=S)cc1`, in that order: greater than 100 µM, greater than 100 µM and greater than 100 µM.
